Source: patent US8785598B2, “Coenzyme Q10 nanoparticles, preparation method thereof and composition containing said nanoparticles” (Korea Research Institute of Bioscience and Biotechnology, priority 2009, dated 2014)

Assay: Confirmation of solubilization of coenzyme Q10 nanoparticle (visual, FIG. 9)
Format: physicochemical
Details: dispersed in water
Source text: FIG. 9 illustrates images of (1) coenzyme Q10 powder, (2) an aqueous solution separated into a supernatant layer when coenzyme Q10 is dispersed in water and (3) an aqueous solution of a coenzyme Q10 nanoparticle of Example 7 of the present invention.
As a result, a semi-transparent yellow aqueous solution was formed.

solubility in water / appearance of aqueous solution: not soluble in water
SMILES: COC1=C(OC)C(=O)C(C/C=C(\C)CC/C=C(\C)CC/C=C(\C)CC/C=C(\C)CC/C=C(\C)CC/C=C(\C)CC/C=C(\C)CC/C=C(\C)CC/C=C(\C)CCC=C(C)C)=C(C)C1=O [coenzyme Q10]
